Laboratory results: patent US20230036060A1, “DUAL-CONTROLLED DRUG AND PHOTOACTIVATABLE SYSTEM FOR SPATIOTEMPORAL CONTROL OF CELL THERAPY” (THE REGENTS OF THE UNIVERSITY OF CALIFORNIA, priority 2019, published 2023)

Legend:
ERT2-mCherry = target: T1, ERT2-mCherry (Homo sapiens, UniProt P03372, G400V/L544A/M543A); assay: Time-lapse fluorescence microscopy of 4-OHT-induced nuclear translocation of ERT2-mCherry in HEK293T cells; type: cell-based; details: 4-OHT 500 nM
T1 construct: expressed in transfected cells; host or cells: HEK293T
T1 sequence (P03372 311-547 G400V/M543A/L544A limits assumed): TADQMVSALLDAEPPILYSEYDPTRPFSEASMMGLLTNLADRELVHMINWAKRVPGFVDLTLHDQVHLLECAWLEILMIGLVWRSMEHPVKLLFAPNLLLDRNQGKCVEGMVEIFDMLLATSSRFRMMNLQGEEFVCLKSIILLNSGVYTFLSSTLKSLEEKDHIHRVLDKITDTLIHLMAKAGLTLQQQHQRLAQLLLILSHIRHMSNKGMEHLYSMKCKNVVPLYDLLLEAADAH
Method: FIG. 2E illustrates representative time-lapse fluorescence microscopy images of HEK293T cells transiently expressing ERT2-mCherry before and after the addition of nuclear-localizing 4-OHT (500 nM) (imaged every 2 min, 100× mag., scale bar=10 μm, n=6 independently measured cells).
Tamoxifen-induced nuclear import translocation dynamics in HEK293T cells were further characterized using an ERT2-mCherry fusion protein (Fig. S1F). Using time-lapse fluorescence microscopy, we discovered that nuclear translocation driven by 4-OHT (500 nM) occurred on the order of hours. ERT2-mCherry protein was only clearly nuclear-localized (with a nuclear-to-cytosolic mean fluorescence intensity ratio≥2) after approximately three hours (FIG. 2E), highlighting an effective time window for blue light stimulation to drive robust Cre-loxP recombination in ERT2-based photoactivatable construct designs.

[1] = cited from earlier work

time to significant 4-OHT-induced nuclear translocation of ERT2-mCh fusion protein (ERT2-mCherry)	nuclear-to-cytosolic mean fluorescence intensity ratio of ERT2-mCherry (ERT2-mCherry; after approximately three hours)	Compound	terminal elimination half-life (plasma concentrations) [1] [h]
approximately 3 h	≥ 2	4-hydroxytamoxifen [4-OHT]	–
–	–	CC/C(=C(\c1ccccc1)c1ccc(OCCN(C)C)cc1)c1ccccc1 [tamoxifen]	5 to 7
